Laboratory results published in patent US20210130826A1, “METHODS OF MODULATING ANTISENSE ACTIVITY” (IONIS PHARMACEUTICALS, INC., priority 2018, published 2021).

Key:
p62 = experiment: Liver protein analysis in mice: p62; format: in vivo; details: Table 30; mouse liver 24 h; oligonucleotide 5 mg/kg (or PBS); Treatment AZD8055 5 mg/kg at 0, 12, 22 h
Experimental: The following experiments were performed to determine if the effects of autophagy modulators on antisense activity in vitro can be observed in vivo. Groups of 3-4 8-week-old male C57bl/6J mice were administered 5 mg/kg control oligonucleotide 141923, or 5 mg/kg antisense oligonucleotide 399462. Following administration of modified oligonucleotide, mice were administered 1% DMSO or 5 mg/kg AZD8055 in 1% DMSO at three time points over 24 hours: at the time of administration of the modified oligonucleotide, and 12 and 22 hours after administration of the modified oligonucleotide. A group of control mice was administered PBS at time 0 and 1% DMSO at 0, 12, and 22 hours. Mice were sacrificed at 24 hours after administration of the modified oligonucleotide and tissues were collected for analysis.
Autophagy activation was confirmed in livers by determining suppression of mTOR kinase activity (pS6/S6 levels), determining an increased LC3B II/I ratio (a marker for the formation of autophagosomes), and determining p62 degradation (related to the clearance of autophagosomes). Protein analysis was carried out on liver tissue using standard procedures. All proteins were normalized to α-tubulin. Phospho-S6 Ribosomal Protein (Ser240/244) (2215S), and S6 Ribosomal Protein (2217S) antibodies were obtained from Cell Signaling Technology. The antibody against LC3B (ab48394) was purchased from Abcam. […]

Malat-1 [1] = experiment: Malat-1 RNA by RT-qPCR in A431 cells; format: cell-based, human; details: MOE gapmer
Experimental: RT-qPCR analysis was performed to detect RNA levels of Malat-1 using primer probe set RTS2736. Results were normalized to cyclophilin A levels (measured using HTS3936). […] Each table below represents results from an individual assay.

Malat-1 [2] = experiment: Malat-1 RNA by RT-qPCR in MHT cells; autophagy modulator, then oligonucleotide by free uptake; format: cell-based, mouse
Experimental: MHT cells (a mouse hepatocellular carcinoma cell line) were plated at 20,000 cells/well and treated with DMSO (control) or an autophagy modulator for 24 hours at the concentrations indicated in Table 2 below. 3-MA, BafA1, AZD8055, and leupeptin are […]. […] Fourteen hours after the addition of autophagy modulators, 10 μM of a modified control oligonucleotide or of a modified antisense oligonucleotide was added by free uptake for ten hours. The modified oligonucleotides, shown in Table 1 below, are 3-10-3 cEt gapmers in which every internucleoside linkage is a phosphorothioate internucleoside linkage. The three 5′-terminal nucleosides and the three 3′-terminal nucleosides of each oligonucleotide each comprise a cEt modified sugar moiety. The remaining ten nucleosides of each oligonucleotide each comprise an unmodified, 2′-deoxy sugar moiety.
Using the primer probe sets described in Table 3 below, RT-qPCR analysis was performed to detect RNA levels of Malat-1, shown in Table 4 and markers of autophagy, (Rab7, LAMP2, Atg7, ULK1, ULK2, Atg5, Beclin, and c-Jun), shown in Table 5. Results were normalized to cyclophilin A levels. To control for global effects of autophagy modulators on gene expression, Malat-1 RNA levels after treatment with an antisense oligonucleotide and an autophagy modulator were normalized to Malat-1 RNA levels in cells treated with control Compound No. 549148 and the same autophagy modulator.
MHT cells were plated at 20,000 cells/well and treated with DMSO (control) or an autophagy modulator for 24 hours, at the concentrations indicated Table 7 below. Fourteen hours after the addition of autophagy modulator, control or antisense oligonucleotides (see Table 6) were added at 1 μM, 2.5 μM, 5 μM, or 10 μM by free uptake for ten hours. The modified oligonucleotides, shown in Table 6 below, are 5-10-5 MOE gapmers in which every internucleoside linkage is a phosphorothioate internucleoside linkage. The five 5′-terminal nucleosides and the five 3′-terminal nucleosides of each oligonucleotide each comprise a 2′-MOE modified sugar moiety. The remaining ten nucleosides of each oligonucleotide each comprise an unmodified, 2′-deoxy sugar moiety.
RT-qPCR analysis was performed to detect RNA levels of Malat-1 using primer probe set 15877 (described in Example 1). In order to control for global effects of autophagy modulators on gene expression, Malat-1 RNA levels after treatment with an antisense oligonucleotide and an autophagy modulator were normalized to Malat-1 RNA levels in cells treated with control Compound No. 141923 and the same autophagy modulator. Each table below represents results from an individual assay.

**Q.** For `COc1ccc(-c2ccc3c(N4CCOC[C@@H]4C)nc(N4CCOC[C@@H]4C)nc3n2)cc1CO` [AZD8055], which P62 (p62) is on record?
**A.** 0.5

**Q.** And the “effect of autophagy modulator on modified oligonucleotide activity (in words)” value (Malat-1 [1])?
**A.** significantly enhanced modified oligonucleotide activity

**Q.** And the “effect of autophagy modulator on modified oligonucleotide activity (in words)” value (Malat-1 [2]; MOE gapmer 399462, relative to DMSO)?
**A.** significantly enhanced modified oligonucleotide activity

**Q.** And the “effect of autophagy modulator on antisense activity (in words)” value (Malat-1 [2]; cEt gapmer 556089, relative to DMSO)?
**A.** significantly enhanced antisense activity
